Data published in ChEMBL document CHEMBL1157741, “Synthesis and antituberculosis activity of novel mefloquine-isoxazole carboxylic esters as prodrugs” (Bioorg Med Chem Lett, 2010).

Tested on: Mycobacterium tuberculosis
Assay: Antimicrobial activity against Mycobacterium bovis BCG
Format: functional
Settings: variant bovis BCG

Row | Compound | MIC [µM]
1 | O=C(O)c1cc(COc2cc(C(F)(F)F)nc3c(C(F)(F)F)cccc23)on1 | > 128
2 | CCOC(=O)c1cc(COc2cc(C(F)(F)F)nc3c(C(F)(F)F)cccc23)on1 | < 0.5
